Results from patent US8969565B2, “Imidazo[1,2-b]pyridazine-based compounds, compositions comprising them, and methods of their use” (Lexicon Pharmaceuticals, Inc., priority 2012, dated 2015).

What was measured:
AAK1 [1] = molecular target: T1, AAK1 (Homo sapiens, UniProt Q2M2I8); assay: HEK281 cell-based assay (phospho-mu2 Western blot in transfected HEK293F cells); settings: 3 hours incubation, read-out: CBA IC50
T1 construct: HA; expressed in transfected cells; host or cells: HEK293F
Method in brief: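 HEK293F cells co-transfected with full-length human AAK1/HA and Flag/AP2M1 were treated next day with 5 compound concentrations (3-fold dilutions) in DMEM+0.5% FBS for 3 hours at 37° C. Lysates were Western blotted for phospho-mu2, with total mu2 detected by anti-Flag.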

AAK1 [2] = molecular target: T1, AAK1; assay: P81 filter plate assay; type: biochemical; settings: full-length human AAK1, Mu2 substrate

T1 sequence (Q2M2I8 1-863 isoform Q2M2I8-2): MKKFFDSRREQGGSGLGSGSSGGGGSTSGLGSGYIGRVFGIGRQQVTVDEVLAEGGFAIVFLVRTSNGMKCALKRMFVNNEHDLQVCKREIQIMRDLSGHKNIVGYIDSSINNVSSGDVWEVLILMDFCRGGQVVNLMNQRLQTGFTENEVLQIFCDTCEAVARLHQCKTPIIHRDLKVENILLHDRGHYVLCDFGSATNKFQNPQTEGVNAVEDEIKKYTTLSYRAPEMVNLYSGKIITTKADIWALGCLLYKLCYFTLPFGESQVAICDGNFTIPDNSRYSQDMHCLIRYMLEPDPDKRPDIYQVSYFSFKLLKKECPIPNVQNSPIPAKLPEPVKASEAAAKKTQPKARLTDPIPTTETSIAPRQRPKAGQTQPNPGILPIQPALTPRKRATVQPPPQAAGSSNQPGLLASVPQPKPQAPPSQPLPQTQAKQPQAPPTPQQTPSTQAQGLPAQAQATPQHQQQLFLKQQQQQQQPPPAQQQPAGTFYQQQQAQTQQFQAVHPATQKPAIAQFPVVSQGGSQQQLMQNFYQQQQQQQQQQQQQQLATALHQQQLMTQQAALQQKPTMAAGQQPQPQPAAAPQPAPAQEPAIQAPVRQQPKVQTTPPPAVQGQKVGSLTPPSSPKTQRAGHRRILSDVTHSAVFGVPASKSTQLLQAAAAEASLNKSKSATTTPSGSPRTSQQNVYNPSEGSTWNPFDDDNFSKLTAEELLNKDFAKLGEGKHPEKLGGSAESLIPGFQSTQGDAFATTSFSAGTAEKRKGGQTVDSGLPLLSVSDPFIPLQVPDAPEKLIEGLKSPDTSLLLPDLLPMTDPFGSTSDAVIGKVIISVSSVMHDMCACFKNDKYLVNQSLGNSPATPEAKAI

Structure (SMILES)	IC50 (AAK1 [1])	IC50 (AAK1 [2])
COc1ccc(F)cc1-c1cnc2ccc(N3CC[C@H](N(C)C(=O)OC(C)C)C3)nn12 [(S)-isopropyl (1-(3-(5-fluoro-2-methoxyphenyl)imidazo[1,2-b]pyridazin-6-yl)pyrrolidin-3-yl)(methyl)carbamate]	≤ 10 nM	≤ 10 nM
COc1ncc(F)cc1-c1cnc2ccc(N3CC[C@H](N(C)C(=O)OC(C)C)C3)nn12 [(S)-isopropyl (1-(3-(5-fluoro-2-methoxypyridin-3-yl)imidazo[1,2-b]pyridazin-6-yl)pyrrolidin-3-yl)(methyl)carbamate]	≤ 100 nM	≤ 10 nM
CC(C)OC(=O)N(C)[C@H]1CCN(c2ccc3ncc(-c4cccnc4)n3n2)C1 [(S)-isopropyl methyl(1-(3-(pyridin-3-yl)imidazo[1,2-b]pyridazin-6-yl)pyrrolidin-3-yl)carbamate]	≤ 100 nM	≤ 10 nM
COc1nc(C)ccc1-c1cnc2ccc(N3CC[C@H](N(C)C(=O)OC(C)C)C3)nn12 [(S)-isopropyl(1-(3-(2-methoxy-6-methylpyridin-3-yl)imidazo[1,2-b]pyridazin-6-yl)pyrrolidin-3-yl)(methyl)carbamate]	≤ 10 nM	≤ 10 nM
CC(C)(C)COC(=O)N1CCC[C@H]1CNc1ccc2ncc(-c3ccc(CN)cc3)n2n1 [(S)-neopentyl 2-(((3-(4-(aminomethyl)phenyl)imidazo[1,2-b]pyridazin-6-yl)amino)methyl)pyrrolidine-1-carboxylate]	≤ 10 nM	≤ 10 nM
CC(C)(C)COC(=O)N1CCC[C@H]1CNc1ccc2ncc(-c3ccncc3)n2n1 [(S)-neopentyl 2-(((3-(pyridin-4-yl)imidazo[1,2-b]pyridazin-6-yl)amino)methyl)pyrrolidine-1-carboxylate]	≤ 100 nM	≤ 10 nM
CC(C)(C)OC(=O)N1CCC[C@H]1CNc1ccc2ncc(-c3ccc(C(N)=O)cc3)n2n1 [(S)-tert-butyl 2-(((3-(4-carbamoylphenyl)imidazo[1,2-b]pyridazin-6-yl)amino)methyl)pyrrolidine-1-carboxylate]	≤ 10 nM	≤ 10 nM
CNC(=O)c1cnc2ccc(NC[C@@H]3CCCN3C(=O)OC(C)(C)C)nn12 [(S)-tert-butyl 2-(((3-(methylcarbamoyl)imidazo[1,2-b]pyridazin-6-yl)amino)methyl)pyrrolidine-1-carboxylate]	≤ 100 nM	≤ 10 nM
Cc1cnc2ccc(NC[C@@H]3CCCN3C(=O)OC(C)(C)C)nn12 [(S)-tert-butyl 2-(((3-methylimidazo[1,2-b]pyridazin-6-yl)amino)methyl)pyrrolidine-1-carboxylate]	≤ 100 nM	≤ 10 nM
CN(C)C(=O)c1cccc(-c2cnc3ccc(N4CCN(C(=O)N5CCCC5)CC4)nn23)c1 [N,N-dimethyl-3-(6-(4-(pyrrolidine-1-carbonyl)piperazin-1-yl)imidazo[1,2-b]pyridazin-3-yl)benzamide]	≤ 100 nM	≤ 10 nM
COc1cncc(-c2cnc3ccc(NCCOC4CCCC4)nn23)c1 [N-(2-(cyclopentyloxy)ethyl)-3-(5-methoxypyridin-3-yl)imidazo[1,2-b]pyridazin-6-amine]	≤ 100 nM	≤ 10 nM
c1ccc(-c2cnc3ccc(NCCOC4CCCC4)nn23)nc1 [N-(2-(cyclopentyloxy)ethyl)-3-(pyridin-2-yl)imidazo[1,2-b]pyridazin-6-amine]	≤ 100 nM	≤ 10 nM
COc1ccccc1-c1cnc2ccc(N3CCN(C(=O)N(C)C(C)C)CC3)nn12 [N-isopropyl-4-(3-(2-methoxyphenyl)imidazo[1,2-b]pyridazin-6-yl)-N-methylpiperazine-1-carboxamide]	≤ 100 nM	≤ 10 nM
CN(C(=O)OC(C)(C)C)[C@H]1CCN(c2ccc3ncc(Br)n3n2)C1 [[(S)-1-(3-Bromo-imidazo[1,2-b]pyridazin-6-yl)-pyrrolidin-3-yl]-methyl-carbamic acid tert-butyl ester]	≤ 1000 nM	≤ 10 nM
COc1cccc(-c2cnc3ccc(N4CCN(C(=O)OC(C)C)CC4)nn23)c1OC [isopropyl 4-(3-(2,3-dimethoxyphenyl)imidazo[1,2-b]pyridazin-6-yl)piperazine-1-carboxylate]	≤ 100 nM	≤ 10 nM

Next, values leading:

IC50 (AAK1 [1])	IC50 (AAK1 [2])	Structure (SMILES)
≤ 10 nM	≤ 10 nM	CC(C)OC(=O)N(C)[C@H]1CCN(c2ccc3ncc(-c4ccc(CN)cc4)n3n2)C1 [(S)-isopropyl (1-(3-(4-(aminomethyl)phenyl)imidazo[1,2-b]pyridazin-6-yl)pyrrolidin-3-yl)(methyl)carbamate]
≤ 10 nM	≤ 10 nM	CC(C)(C)OC(=O)N1CCC[C@H]1CNc1ccc2ncc(-c3ccc(CN)cc3)n2n1 [(S)-tert-butyl 2-(((3-(4-(aminomethyl)phenyl)imidazo[1,2-b]pyridazin-6-yl)amino)methyl)pyrrolidine-1-carboxylate]
≤ 100 nM	≤ 10 nM	CC(C)(C)OC(=O)N1CC[C@H]1CNc1ccc2ncc(Br)n2n1 [(S)-tert-butyl 2-(((3-bromoimidazo[1,2-b]pyridazin-6-yl)amino)methyl)azetidine-1-carboxylate]
≤ 10 nM	≤ 10 nM	CC(C)(C)OC(=O)N1CCC[C@H]1CNc1ccc2ncc(-c3ccccc3)n2n1 [(S)-tert-butyl 2-(((3-phenylimidazo[1,2-b]pyridazin-6-yl)amino)methyl)pyrrolidine-1-carboxylate]
≤ 100 nM	≤ 10 nM	COc1ccccc1-c1cnc2ccc(N3CC[C@H](N(C)C(=O)OC(C)(C)C)C3)nn12 [(S)-tert-butyl (1-(3-(2-methoxyphenyl)imidazo[1,2-b]pyridazin-6-yl)pyrrolidin-3-yl)(methyl)carbamate]
≤ 1000 nM	≤ 10 nM	CN(C(=O)OC(C)(C)C)[C@H]1CCN(c2ccc3ncc(-c4ccncc4)n3n2)C1 [(S)-tert-butyl methyl(1-(3-(pyridin-4-yl)imidazo[1,2-b]pyridazin-6-yl)pyrrolidin-3-yl)carbamate]
≤ 100 nM	≤ 10 nM	C=COC(=O)N1CCC[C@H]1CNc1ccc2ncc(-c3ccccc3OC)n2n1 [(S)-vinyl 2-(((3-(2-methoxyphenyl)imidazo[1,2-b]pyridazin-6-yl)amino)methyl)pyrrolidine-1-carboxylate]
≤ 100 nM	≤ 10 nM	COc1ccccc1-c1cnc2ccc(N3CC[C@H](N(C)C(=O)N4CCCC4)C3)nn12 [(S)—N-(1-(3-(2-methoxyphenyl)imidazo[1,2-b]pyridazin-6-yl)pyrrolidin-3-yl)-N-methylpyrrolidine-1-carboxamide]
≤ 100 nM	≤ 10 nM	COc1ncccc1-c1cnc2ccc(N3CC[C@H](N(C)C(=O)N4CCCC4)C3)nn12 [(S)—N-(1-(3-(2-methoxypyridin-3-yl)imidazo[1,2-b]pyridazin-6-yl)pyrrolidin-3-yl)-N-methylpyrrolidine-1-carboxamide]
≤ 1000 nM	≤ 100 nM	c1cc(-c2cnc3ccc(NCCOC4CCCC4)nn23)n[nH]1 [N-(2-(cyclopentyloxy)ethyl)-3-(1H-pyrazol-3-yl)imidazo[1,2-b]pyridazin-6-amine]
≤ 1000 nM	≤ 10 nM	Fc1ncccc1-c1cnc2ccc(NCCOC3CCCC3)nn12 [N-(2-(cyclopentyloxy)ethyl)-3-(2-fluoropyridin-3-yl)imidazo[1,2-b]pyridazin-6-amine]
≤ 100 nM	≤ 100 nM	CC(=O)Nc1cccc(-c2cnc3ccc(NCCOC4CCCC4)nn23)c1 [N-(3-(6-((2-(cyclopentyloxy)ethyl)amino)imidazo[1,2-b]pyridazin-3-yl)phenyl)acetamide]
≤ 100 nM	≤ 10 nM	CC(C)(C)NC(=O)N1CCN(c2ccc3ncc(-c4ccccc4)n3n2)CC1 [N-(tert-Butyl)-4-(3-phenylimidazo[1,2-b]pyridazin-6-yl)piperazine-1-carboxamide]
≤ 1000 nM	≤ 10 nM	COc1ccccc1-c1cnc2ccc(N3CCN(C(=O)NC(C)C)CC3)nn12 [N-isopropyl-4-(3-(2-methoxyphenyl)imidazo[1,2-b]pyridazin-6-yl)piperazine-1-carboxamide]
≤ 1000 nM	≤ 10 nM	CC(C)SC(=O)N1CCN(c2ccc3ncc(-c4ccccc4)n3n2)CC1 [S-Isopropyl 4-(3-phenylimidazo[1,2-b]pyridazin-6-yl)piperazine-1-carbothioate]
≤ 100 nM	≤ 10 nM	O=C(N1CCCC1)N1CCN(c2ccc3ncc(-c4ccccn4)n3n2)CC1 [[4-(3-Pyridin-2-yl-imidazo[1,2-b]pyridazin-6-yl)-piperazin-1-yl]-pyrrolidin-1-yl-methanone]
≤ 100 nM	≤ 10 nM	CCOC(=O)N1CCN(c2ccc3ncc(-c4ccccc4)n3n2)CC1 [ethyl 4-(3-phenylimidazo[1,2-b]pyridazin-6-yl)piperazine-1-carboxylate]
≤ 1000 nM	≤ 10 nM	CC(C)OC(=O)N1CCN(c2ccc3ncc(-c4cccc5c4OC(F)(F)O5)n3n2)CC1 [isopropyl 4-(3-(2,2-difluorobenzo[d][1,3]dioxol-4-yl)imidazo[1,2-b]pyridazin-6-yl)piperazine-1-carboxylate]
≤ 100 nM	≤ 10 nM	COc1ccc(OC)c(-c2cnc3ccc(N4CCN(C(=O)OC(C)C)CC4)nn23)c1 [isopropyl 4-(3-(2,5-dimethoxyphenyl)imidazo[1,2-b]pyridazin-6-yl)piperazine-1-carboxylate]
≤ 100 nM	≤ 10 nM	CC(C)OC(=O)N1CCN(c2ccc3ncc(-c4ccccc4OC(F)F)n3n2)CC1 [isopropyl 4-(3-(2-(difluoromethoxy)phenyl)imidazo[1,2-b]pyridazin-6-yl)piperazine-1-carboxylate]
≤ 100 nM	≤ 10 nM	CC(C)OC(=O)N1CCN(c2ccc3ncc(-c4cccnc4OC(F)F)n3n2)CC1 [isopropyl 4-(3-(2-(difluoromethoxy)pyridin-3-yl)imidazo[1,2-b]pyridazin-6-yl)piperazine-1-carboxylate]
